Results: article PMC9911797, “Novel TLR7/8 agonists promote activation of HIV-1 latent reservoirs and human T and NK cells” (Frontiers in Microbiology, 2023)

Tests used:
[1] = test system: PBMCs from HIV-1 well-suppressed patients; assay: Latent HIV-1 activation in PBMCs of well-suppressed patients (HIV-1 RNA copies in supernatant, RT-qPCR); type: cell-based, human
From the text: To study the potential of novel TLR7/8 in activating latent HIV-1 reservoir, TLR7/8 dual agonists D018 and C142 and TLR8-specific agonist B-130a were mixed with PBMCs from six well-suppressed patients whose viral load in the plasma was less than 50 copies/ml, and CD4 counts were more than […] for more than 6 years.
TLR7/8 agonists activated PBMCs from seven well-suppressed patients with the addition of anti-TNF-α monoclonal antibody or IgG1-control monoclonal antibody, respectively. D018, B-130a, and the positive control PMA + ION increased the levels of HIV-1 RNA copies in the supernatant and the concentration of TNF-α concomitantly.
To measure the HIV viral load, viral RNA from supernatants was extracted by MagaBio Plus Viral DNA / RNA Purification Kit (BIOER). The reverse-transcription and analysis of RNA copies were performed using the HIV-1 Real-time PCR detection kit (BIOER).

PBMCs = assay: Inflammatory cytokine release from PBMCs (Legend-plex); type: cell-based, human; conditions: PBMC culture supernatant 48 h after stimulation
Description: Then, a total of 13 human inflammatory cytokines and chemokines (IL-1β, IFN-α2, IFN-γ, TNF-α, CCL2, IL-6, CXCL8, IL-10, IL-12p70, IL-17A, IL-18, IL-23, and IL-33) were measured in the culture supernatant 48 h after stimulation and compared with two healthy donors. Only 8 out of 13 became detectable and largely fell into the proinflammatory cytokines (IL-1β, IL-6, IL-18, IL-23, and TNF-α), Th1-and Th2-type cytokines (IL-10 and IFN-γ), and type I (IFN-α2) and type II (IFN-γ) interferons (Figures 2B–I).
The supernatants from PBMCs culture were collected and stored at-20°C until analysis. For the Multi-cytokines assay, the Legend-plex Human Inflammation Panel 1 kit (Biolegend) was used according to the manual. Thirteen human inflammatory cytokines/chemokines were measured, including IL-1β, IFN-α2, IFN-γ, TNF-α, MCP-1 (CCL2), IL-6, IL-8 (CXCL8), IL-10, IL-12p70, IL-17A, IL-18, IL-23, and IL-33.

[2] = test system: PBMCs from healthy donors; assay: Surface activation markers on immune cells of healthy donor PBMCs (flow cytometry); type: cell-based, human; conditions: 1 μM, 24 h
From the text: TLR family is essential in connecting innate immunity with acquired immunity in fighting against infection. It was then studied whether the identified TLR7/8 agonists could activate cell populations within PBMC, thereby potentiating their effector functions. […] The representative diagram of the gating strategy for each immune cell is shown in Supplementary Figure S5. All tested TLR7/8 agonists activated CD69 and NKG2D expression on CD56^bright and CD56^dim NK cells (Figures 6A–D), as well as CD69 and CD25 expression on CD4+ and CD8+ T cells (Figures 6E–H).
Then cells were collected and washed in FACS buffer (PBS + 2%FBS). Cells were incubated by fluorescence antibodies at 4°C for 30 min. For T cells, CD3-PE-Cy7 (Biolegend), CD4-PE (BD), CD8-FITC (Biolegend), CD25-BV421 (Biolegend), CD69-BV510 (Biolegend). For NK cells, CD16-PE (Biolegend), CD56-APC (Biolegend), CD69-BV510 (Biolegend), NKG2D-BV421 (Biolegend). For monocytes, CD14-PE-Cy7 (Invitrogen), CD40-APC-Cy7 (Biolegend) HLR-DR-BV510 (Biolegend). For dendritic cells, anti-human lineage cocktail-APC (Biolegend), CD11c-PE-Cy7 (Biolegend), CD80-BV510 (Biolegend), CD86-AF488 (Biolegend).

NF-κB p65 in U1 cells = assay: Nuclear phospho-p65-S536 in U1 cells (western blot); conditions: 1 μM, 30 min, 37°C
Description: For measuring NF-kB p65 and phosphor-p65 S536, 5 × 10^6 U1 cells were stimulated by 1 μM TLR7/8 agonists D018 (7/8), B-130a (8), GS9620 (7), and DMSO (negative control) for 30 min. Nuclear proteins were extracted by NE-PER Nuclear and Cytoplasmic Extraction Reagents (Pierce) and measured the concentration using BCA protein measure kit (Thermo).
Equal amounts of extracts were loaded on the 10% polyacrylamide gel SDS-PAGE. Then proteins were electro-transferred to nitrocellulose membranes 300 mA for 90 min and incubated with blocking buffer (5% nonfat dry milk and 0.1% Tween 20 in TBS) for 1 h at room temperature. NF-kB p65, phosphorylate p65-s529, and PCNA (as the control of nuclear protein) were separately detected by NF-κB p65 Mouse mAb (CST), Phospho-NF-κB p65 Ser536 Rabbit mAb (CST) and PCNA Rabbit mAb (CST) in blocking buffer overnight at 4°C. After washing 5 times in TBST (1 × TBS + 0.1% Tween), the membranes were incubated with anti-mouse IgG (H + L) HRP (Promega) and anti-rabbit IgG (H + L) HRP (Promega) for 1 h at room temperature. After washing 5 times in TBST, membranes were incubated with ECL detection reagents (Bio-red) and then developed in Bio-red imager.

[3] = test system: J-LAT cells co-cultured with MDDCs; assay: J-LAT and MDDC co-culture assay (GFP+ cells and TNF-α); conditions: 1 μM, 48 h

CCCCNc1nc(N)nc2ccc(Cc3ccc(CN(C)C)cc3)nc12 [D018] was tested, and the “HIV-1 RNA copies in the supernatant and TNF-α concentration” value ([1]; PBMCs from seven well-suppressed patients, IgG1-control antibody vs anti-TNF-α) was “increased”, the “HIV-1 RNA copies in the supernatant” value ([1]; patient PBMCs (n = 6), 96 h at 37°C) was “most potent” and the “release of inflammatory cytokines” value (PBMCs) was “either equivalent (IL-6, IL-10, IL-23, and IFN-γ) or higher (IL-1β, IL-18, and TNF-α) than the commercially available R848”. For the same compound, the “CD69/NKG2D on NK cells and CD69/CD25 on CD4+ and CD8+ T cells” value [2] was “most potent”, the “nuclear phos-p65-S536” value (NF-κB p65 in U1 cells) was “significant increase” and the “GFP+ J-LAT cells and soluble TNF-α in MDDC co-culture” value [3] was “marked increase”.
